Source: US7094909B2, “HIV protease inhibitors, compositions containing the same, their pharmaceutical uses and materials for their synthesis” (priority 2001, dated 2006)

Target: T1, HIV-1 protease (Q7S mutant form) (Human immunodeficiency virus type 1 group M subtype B, UniProt P04585, Q495S)
T1 construct: made in house
Assay: HIV-1 Protease RET assay
Format: biochemical
Conditions: Ave. Ki (nM), RET assay, Q7S enzyme, Morrison tight binding fit
Protocol: Ki's for the inhibitors of HIV-1 protease were determined using a resonance energy transfer (RET) assay. […] This enzyme is first partially purified as inclusion bodies from cell lysate. It is then solublized in 8M urea and passed through a Q-Sepharose column (Pharmacia) for further purification. To refold this protein, samples containing Q7S is dialyzed into 50 mM sodium phosphate pH 7.0, 50 mM NaCl, 10 mM DTT, and 10% glycerol.
The commercially available peptide substrate (Molecular Probes Cat. # H-2930) RE(EDANS)SQNYPIVQK(DABCYL)R is used to assess activity and Ki's. This peptide is cleaved quantitatively by HIV-1 Pr at the Tyr-Pro bond. The EDANS fluorophore absorbs at 340 nm and emits at 490 nm. The reaction is carried out in a 96 well plate in a total volume of 100 µL and is run for 12 minutes at 37 C under steady-state conditions with 5 µM substrate and 2 nM active dimer enzyme concentration. The literature value Km for this substrate and enzyme is 103+/−8 µM (See Matayoshi, et al., “Novel Fluorogenic Substrates for Assaying Retroviral Proteases by Resonance Energy Transfer,” Science 247, 954 (1990)). The buffer for this reaction is 0.1M sodium acetate pH 4.8, 1M NaCl, 1 mM EDTA, 5 mM dithiothreitol, 10% dimethyl sulfoxide and 1 mg/ml bovine serum albumin. Inhibition curves are fit using the Morrison tight binding equation.

Structure (SMILES)	Ki
Cc1ccccc1CNC(=O)[C@@H]1CC(F)(F)CN1C(=O)[C@@H](O)[C@H](Cc1ccccc1)NC(=O)c1c(C)noc1C [Example C43, 3,5-Dimethyl-isoxazole-4-carboxylic acid {1-benzyl-3-[4,4-difluoro-2-(2-methyl-benzylcarbamoyl)-pyrrolidin-1-yl]-2-hydroxy-3-oxo-propyl}-amide]	21 nM
Cc1ccccc1CNC(=O)NC(Cc1ccccc1)C(O)C(=O)N1CSC(C)(C)[C@H]1C(=O)NCc1ccncc1 (stereo partly drawn) [Example B66, 3-{(2S,3S)-2-Hydroxy-3-[3-(2-methyl-benzyl)-ureido]-phenyl-butyryl}-5,5-dimethyl-thiazolidine-4-carboxylic acid (pyridin-4-ylmethyl)-amide]	5.2 nM
C#CCOC(=O)N[C@@H](Cc1ccccc1)[C@H](O)C(=O)N1CC(F)(F)C[C@H]1C(=O)NCc1ccccc1C [Example C44, {1-Benzyl-3-[4,4-difluoro-2-(2-methyl-benzylcarbamoyl)-pyrrolidin-1-yl]-2-hydroxy-3-oxo-propyl}-carbamic acid prop-2-ynyl ester]	14.8 nM
COc1cccc(CNC(=O)N[C@@H](Cc2ccccc2)[C@H](O)C(=O)N2CSC(C)(C)[C@H]2C(=O)NCc2ccccc2C)c1 [Example B76, (R)-3-{(2S,3S)-2-Hydroxy-3-[3-(3-methoxy-benzyl)-ureido]-4-phenyl-butyryl}-5,5-dimethyl-thiazolidine-4-carboxylic acid 2-methyl-benzylamide]	11.2 nM
Cc1ccccc1CNC(=O)[C@H]1N(C(=O)C(O)C(Cc2ccccc2)NC(=O)NCc2ccc(Br)cc2)CSC1(C)C (stereo in doubt) [Example B73, 3-{3-[3-(4Bromo-benzyl)-ureido]-2-hydroxy-4phenyl-butyryl}-5,5-dimethyl-thiazolidine-4-carboxylic acid 2-methyl-benzylamide]	13 nM
Cc1c(O)cccc1C(=O)N[C@@H](Cc1ccccc1)[C@H](O)C(=O)N1CSC(C)(C)[C@H]1C(=O)NCc1nc2ccccc2[nH]1 [Example A60, (R)-3-[(2S,3S)-2-Hydroxy-3-(3-hydroxy-2-methyl-benzoylamino)-4-phenyl-butyryl]-5,5-dimethyl-thiazolidine-4-carboxylic acid (1H-benzoimidazol-2-ylmethyl)-amide]	66.6 nM
Cc1ccccc1CNC(=O)[C@H]1N(C(=O)C(O)C(Cc2ccccc2)NS(=O)(=O)c2ccc(C#N)cc2)CSC1(C)C (stereo partly drawn) [Example B58, 3-[(2S,3S)-3-(4-Cyano-benzenesulfonylamino)-2-hydroxy-4-phenyl-butyryl]-5,5-dimethyl-thiazolidine-carboxylic acid 2-methyl-benzylamide]	240 nM
Cc1c(O)cccc1C(=O)N[C@@H](Cc1ccccc1)[C@H](O)C(=O)N1CO[C@@H](C)[C@H]1C(=O)N[C@@H]1C=CCCC1 [Example C28, (4S,5S)-3-((2S,3S)-2-Hydroxy-3-{[1-(3-hydroxy-2-methyl-phenyl)-methanoyl]-amino}-4phenyl-butanoyl)-5-methyl-oxazoldine-4-carboxylic acid (S)-cyclohex-2-enylamide]	8.4 nM
Cc1ccccc1CNC(=O)N[C@@H](Cc1ccccc1)[C@H](O)C(=O)N1CSC(C)(C)[C@H]1C(=O)NCc1ccccc1C [Example B62, 3-{(2S,3S)-2-Hydroxy-3-[3-(2-methyl-benzyl)-ureido]-4-phenyl-butyryl}-5,5-dimethyl-thiazolidine-4-carboxylic acid 2-methyl-benzylamide]	4.2 nM
Cc1ccccc1CNC(=O)[C@H]1N(C(=O)C(O)C(Cc2ccccc2)NC(=O)NCc2ccc(F)cc2F)CSC1(C)C (stereo in doubt) [Example B71, 3-{3-[3-(2,4-Difluoro-benzyl)-ureido]-2-hydroxy-4-phenyl-butyryl}-5,5-dimethyl-thiazolidine-4-carboxylic acid 2-methyl-benzylamide]	6.4 nM
Cc1c(O)cccc1C(=O)N[C@@H](Cc1ccccc1)[C@H](O)C(=O)N1CC(F)(F)C[C@H]1C(=O)NCc1c(F)cccc1Cl [Example C14, (S)-4,4-Difluoro-1-[(2S,3S)-2-hydroxy-3-(3-hydroxy-2-methyl-benzoylamino)-4-phenyl-butyryl]-pyrrolidine-2-carboxylic acid 2-chloro-6-fluoro-benzylamide]	2.5 nM
Cc1ccccc1CNC(=O)[C@H]1N(C(=O)[C@@H](O)[C@H](Cc2ccccc2)NC(=O)NCc2cccc(C(F)(F)F)c2)CSC1(C)C [Example B75, (R)-3-{(2S,3S)-2-Hydroxy-4-phenyl-3-[3-(3-trifluoromethyl-benzyl)-ureido]-butyryl}-5,5-dimethyl-thiazolidine-4-carboxylic acid 2-methyl-benzylamide]	81 nM

Same assay, conditions: Ki, unit inferred

Structure (SMILES)	Ki
Cc1ccccc1CNC(=O)C1N(C(=O)[C@@H](O)C(Cc2ccccc2)NC(=O)c2cnc3ccccc3c2)CSC1(C)C (stereo partly shown)	18.1 nM
C#CCOC(=O)N[C@@H](Cc1ccccc1)[C@H](O)C(=O)N1CSC(C)(C)[C@H]1C(=O)NCc1cccc(CC)c1	3.8 nM
Cc1c(O)cccc1C(=O)N[C@@H](Cc1ccccc1)[C@H](O)C(=O)C1CCC2(CCCC2)[C@@H]1C(=O)NC1=CCCCC1 (stereo partly shown)	53 nM
Cc1ccccc1CNC(=O)[C@H]1N(C(=O)[C@@H](O)[C@H](Cc2ccccc2)NC(=O)C2CCNCC2)CSC1(C)C	45 nM
Cc1ccccc1CNC(=O)[C@H]1N(C(=O)[C@@H](O)[C@H](Cc2ccccc2)NC(=O)C2CCCNC2)CSC1(C)C (stereo partly shown)	11.5 nM
Cc1ccccc1CNC(=O)C1N(C(=O)[C@@H](O)C(Cc2ccccc2)NC(=O)/C=C/c2c(Cl)cccc2Cl)CSC1(C)C (stereo partly shown)	11.9 nM
Cc1ccccc1CNC(=O)C1N(C(=O)[C@@H](O)C(Cc2ccccc2)NC(=O)OCc2cccnc2)CSC1(C)C (stereo partly shown)	27 nM
Cc1ccccc1CNC(=O)[C@H]1N(C(=O)[C@@H](O)[C@H](Cc2ccccc2)NC(=O)CN)CSC1(C)C	110 nM
Cc1ccccc1CCC(=O)C1N(C(=O)[C@@H](O)C(Cc2ccccc2)NC(=O)C2CCC2)CSC1(C)C (stereo partly shown)	4.4 nM
Cc1ccccc1CNC(=O)[C@H]1N(C(=O)[C@@H](O)[C@H](Cc2ccccc2)NC(=O)COc2cccnc2Cl)CSC1(C)C	7.6 nM
Cc1ccccc1CNC(=O)[C@H]1N(C(=O)[C@@H](O)[C@H](Cc2ccccc2)NC(=O)C2=CCCCC2)CSC1(C)C	4.7 nM
Cc1c(O)cccc1C(=O)N[C@@H](Cc1ccccc1)[C@H](O)C(=O)N1CSC(C)(C)C1C(=O)NCCc1ccccn1 (stereo partly shown)	134 nM
Cc1ccccc1CNC(=O)[C@H]1N(C(=O)[C@@H](O)[C@H](Cc2ccccc2)NC(=O)CCCN)CSC1(C)C	51 nM
Cc1c(O)cccc1C(=O)N[C@@H](Cc1ccccc1)[C@H](O)C(=O)N1CSC(C)(C)[C@H]1C(=O)NC1(C#N)CC1	6.2 nM
CCCNC(=O)[C@@H]1CC(F)(F)CN1C(=O)[C@@H](O)[C@H](Cc1ccccc1)NC(=O)c1ccc(C)c(O)c1C	108 nM
Cc1ccccc1CNC(=O)[C@@H]1N(C(=O)[C@@H](O)[C@H](Cc2ccccc2)NC(=O)CSc2c(C)cccc2C)CSC1(C)C	422 nM

Structure (SMILES)	Ki
Cc1ccccc1CNC(=O)[C@H]1N(C(=O)[C@@H](O)[C@H](Cc2ccccc2)NC(=O)C(C)CNC(=O)OC(C)(C)C)CSC1(C)C (stereo partly shown)	52 nM
Cc1ccccc1CNC(=O)[C@H]1N(C(=O)[C@@H](O)[C@H](Cc2ccccc2)NC(=O)COc2cccc3cnccc23)CSC1(C)C	21 nM
CC#CC(C)OC(=O)NC(Cc1ccccc1)[C@H](O)C(=O)N1CSC(C)(C)[C@H]1C(=O)NCc1ccccc1C (stereo partly shown)	29 nM
CCc1cccc(CNC(=O)[C@H]2N(C(=O)[C@@H](O)[C@H](Cc3ccccc3)NC(=O)NCc3ccc(OC)cc3)CSC2(C)C)c1	59 nM
Cc1ccccc1CNC(=O)[C@H]1N(C(=O)[C@@H](O)[C@H](Cc2ccccc2)NC(=O)Cc2c(F)cccc2F)CSC1(C)C	72 nM
Cc1ccccc1CNC(=O)[C@H]1N(C(=O)[C@@H](O)[C@H](Cc2ccccc2)NC(=O)C(C)CN)CSC1(C)C (stereo partly shown)	158 nM
Cc1ccccc1CNC(=O)C1N(C(=O)[C@@H](O)C(Cc2ccccc2)NC(=O)C(C)(C)C)CSC1(C)C (stereo partly shown)	47 nM
COc1cccc(CNC(=O)[C@H]2N(C(=O)[C@@H](O)[C@H](Cc3ccccc3)NC(=O)OC(C)(C)C)CSC2(C)C)c1	68 nM
Cc1ccccc1CNC(=O)[C@H]1N(C(=O)[C@@H](O)[C@H](Cc2ccccc2)NC(=O)/C=C/c2cccnc2)CSC1(C)C	9.9 nM
Cc1ccccc1CNC(=O)[C@H]1N(C(=O)[C@@H](O)[C@H](Cc2ccccc2)NC(=O)OC2CCC3CCCC3C2)CSC1(C)C (stereo partly shown)	148 nM
CC1(C)SCN(C(=O)[C@@H](O)[C@H](Cc2ccccc2)NC(=O)CSc2nc[nH]n2)[C@@H]1C(=O)NCc1cccs1	13.9 nM
Cc1ccccc1CNC(=O)[C@H]1N(C(=O)[C@@H](O)[C@H](Cc2ccccc2)NC(=O)Oc2ccc(Cl)cc2)CSC1(C)C	468 nM
CC(C)=CC(=O)N[C@@H](Cc1ccccc1)[C@H](O)C(=O)N1CSC(C)(C)[C@H]1C(=O)NCc1ccccc1C	6.1 nM
CCCNC(=O)C1CC(F)(F)CN1C(=O)[C@@H](O)[C@H](Cc1ccccc1)NC(=O)c1cccc(OC(C)=O)c1C (stereo partly shown)	85 nM
Cc1ccccc1CNC(=O)[C@H]1N(C(=O)[C@@H](O)[C@H](Cc2ccccc2)NC(=O)C2CCCN(C(=O)OC(C)(C)C)C2)CSC1(C)C (stereo partly shown)	117 nM
